According to PubChem BioAssay (NCI):
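Test compounds were applied to cells in 96-well plates for 48 hours at 5 doses. GI50 = concentration required for 50% inhibition of growth. TGI marks complete inhibition of growth.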

How the values were obtained:
Experiment in all cases: DTP human tumour cell line panel, 48 h
CCRF-CEM leukemia = system: CCRF-CEM leukemia
OVCAR-4 ovarian = system: OVCAR-4 ovarian
SF-268 CNS = system: SF-268 CNS
SK-OV-3 ovarian = system: SK-OV-3 ovarian
SNB-75 CNS = system: SNB-75 CNS
SR leukemia = system: SR leukemia
U251 CNS = system: U251 CNS
A498 renal = system: A498 renal
OVCAR-8 ovarian = system: OVCAR-8 ovarian
PC-3 prostate = system: PC-3 prostate

Compound: CCN1CCCC(Nc2cc(C)nc(/N=C(/N)Nc3ccc(Cl)c(Cl)c3)n2)C1 (stereo not drawn)
- TGI (CCRF-CEM leukemia): 2.4 µM
- TGI (OVCAR-4 ovarian): 4.97 µM
- TGI (SF-268 CNS): 5.63 µM
- TGI (SK-OV-3 ovarian): 5.24 µM
- TGI (SNB-75 CNS): 2.71 µM
- TGI (SR leukemia): 2.88 µM
- TGI (U251 CNS): 2.6 µM

Compound: COc1cc(OC)cc(-n2c(N)c(-c3nc4ccccc4n3C)c3ccc([N+](=O)[O-])cc3c2=O)c1
- TGI (A498 renal): > 100 µM
- TGI (OVCAR-4 ovarian): 88.4 µM
- TGI (OVCAR-8 ovarian): > 100 µM
- TGI (PC-3 prostate): > 100 µM
- TGI (SF-268 CNS): > 100 µM
- TGI (SNB-75 CNS): 63.9 µM
- TGI (U251 CNS): > 100 µM

Compound: CC(=O)C12C[C@](C#N)(N3CCCCCC3)C1C=Cc1ccccc12 (stereo partly drawn)
- TGI (CCRF-CEM leukemia): > 100 µM
- TGI (OVCAR-4 ovarian): > 100 µM
- TGI (OVCAR-8 ovarian): > 100 µM
- TGI (PC-3 prostate): > 100 µM
- TGI (SF-268 CNS): > 100 µM
- TGI (SK-OV-3 ovarian): > 100 µM
- TGI (SNB-75 CNS): > 100 µM
- TGI (SR leukemia): > 100 µM
- TGI (U251 CNS): > 100 µM

Compound: Cn1c2c(c3ccccc31)CCN1C(=O)C3SC21C1C(=O)N(c2ccccc2)C(=O)C31 (stereo not drawn)
- TGI (A498 renal): > 89.7 µM
- GI50 (CCRF-CEM leukemia): 53.4 µM
- TGI (CCRF-CEM leukemia): > 100 µM
- TGI (OVCAR-4 ovarian): > 100 µM
- TGI (OVCAR-8 ovarian): > 100 µM
- GI50 (PC-3 prostate): 23.4 µM
- TGI (PC-3 prostate): > 100 µM
- TGI (SF-268 CNS): > 100 µM
- TGI (SK-OV-3 ovarian): > 100 µM
- GI50 (SNB-75 CNS): 13.4 µM
- TGI (SNB-75 CNS): > 100 µM
- TGI (SR leukemia): > 100 µM
- TGI (U251 CNS): > 100 µM

Compound: Cc1nn(C(=O)c2ccncc2)c2c1C(c1cccc([N+](=O)[O-])c1)SC(N)=N2 (stereo not drawn)
- TGI (CCRF-CEM leukemia): > 10 µM
- TGI (OVCAR-4 ovarian): > 10 µM
- TGI (OVCAR-8 ovarian): > 10 µM
- TGI (PC-3 prostate): > 10 µM
- TGI (SF-268 CNS): > 10 µM
- TGI (SK-OV-3 ovarian): > 10 µM
- TGI (SNB-75 CNS): > 10 µM
- TGI (SR leukemia): > 10 µM
- TGI (U251 CNS): > 10 µM

Compound: [N-]=[N+]=NC[C@H]1OCO[C@H](CN=[N+]=[N-])[C@H]2OCCOCCOc3ccccc3OCCOCCO[C@@H]21
- TGI (CCRF-CEM leukemia): > 100 µM
- TGI (OVCAR-4 ovarian): > 100 µM
- TGI (OVCAR-8 ovarian): > 100 µM
- TGI (PC-3 prostate): > 100 µM
- TGI (SF-268 CNS): > 100 µM
- TGI (SK-OV-3 ovarian): > 100 µM
- TGI (SNB-75 CNS): > 100 µM
- TGI (U251 CNS): > 100 µM

Compound: CC(C)=Nn1cnc(C(=N)C#N)c1N
- TGI (CCRF-CEM leukemia): > 100 µM
- TGI (OVCAR-4 ovarian): > 100 µM
- TGI (OVCAR-8 ovarian): > 100 µM
- TGI (PC-3 prostate): > 100 µM
- TGI (SF-268 CNS): > 100 µM
- TGI (SK-OV-3 ovarian): > 100 µM
- TGI (SNB-75 CNS): > 100 µM
- TGI (SR leukemia): > 100 µM
- TGI (U251 CNS): > 100 µM

Compound: CC(=O)Nc1ccc(C(=O)N2N=C(C)/C(=C/c3cccc([N+](=O)[O-])c3)C2=O)cc1
- TGI (CCRF-CEM leukemia): > 100 µM
- TGI (OVCAR-4 ovarian): > 100 µM
- TGI (OVCAR-8 ovarian): > 100 µM
- TGI (SF-268 CNS): > 100 µM
- TGI (SNB-75 CNS): > 100 µM
- TGI (SR leukemia): > 100 µM

Compound: C=CCC1(CC)C(=O)NC(=O)NC1=O
- TGI (CCRF-CEM leukemia): > 100 µM
- TGI (OVCAR-8 ovarian): > 100 µM
- TGI (SF-268 CNS): > 100 µM
- TGI (SK-OV-3 ovarian): > 100 µM
- TGI (SNB-75 CNS): > 100 µM
- TGI (SR leukemia): > 100 µM
- TGI (U251 CNS): > 100 µM

Compound: COP(=O)(OC)C(NC=O)P(=O)(OC)OC
- TGI (A498 renal): > 100 µM
- TGI (CCRF-CEM leukemia): > 100 µM
- TGI (OVCAR-4 ovarian): > 100 µM
- TGI (OVCAR-8 ovarian): > 100 µM
- TGI (PC-3 prostate): > 100 µM
- TGI (SF-268 CNS): > 100 µM
- TGI (SK-OV-3 ovarian): > 100 µM
- TGI (SR leukemia): > 100 µM
- TGI (U251 CNS): > 100 µM

Compound: O=C(N/N=C/c1ccc(Cl)cc1)c1cc(I)cc(I)c1O
- TGI (A498 renal): > 100 µM
- TGI (CCRF-CEM leukemia): > 100 µM
- TGI (OVCAR-4 ovarian): > 100 µM
- TGI (OVCAR-8 ovarian): > 100 µM
- TGI (PC-3 prostate): > 100 µM
- TGI (SK-OV-3 ovarian): > 100 µM
- TGI (SNB-75 CNS): > 100 µM
- TGI (SR leukemia): > 100 µM
- TGI (U251 CNS): > 100 µM

Compound: CSc1nc(C#N)c(N)n1C
- TGI (A498 renal): > 100 µM
- TGI (CCRF-CEM leukemia): > 100 µM
- TGI (OVCAR-4 ovarian): > 100 µM
- TGI (OVCAR-8 ovarian): > 100 µM
- TGI (PC-3 prostate): > 100 µM
- TGI (SF-268 CNS): > 100 µM
- TGI (SK-OV-3 ovarian): > 100 µM
- TGI (SR leukemia): > 100 µM
- TGI (U251 CNS): > 100 µM

Compound: O=c1[nH]cnc2sc(=S)c3c(c12)CCC3
- TGI (CCRF-CEM leukemia): 49 µM
- TGI (OVCAR-4 ovarian): > 100 µM
- TGI (OVCAR-8 ovarian): > 100 µM
- TGI (PC-3 prostate): > 100 µM
- TGI (SF-268 CNS): > 100 µM
- TGI (SK-OV-3 ovarian): > 100 µM
- TGI (SNB-75 CNS): > 100 µM
- TGI (SR leukemia): 35.5 µM
- TGI (U251 CNS): > 100 µM

Compound: CN(C)Cc1cc(C(=O)/C=C/c2cccc(Cl)c2)cc(CN(C)C)c1O
- TGI (A498 renal): 14.2 µM
- TGI (CCRF-CEM leukemia): 8.25 µM
- TGI (OVCAR-8 ovarian): 61.3 µM
- TGI (PC-3 prostate): 22.8 µM
- TGI (SF-268 CNS): 24.1 µM
- TGI (SNB-75 CNS): 6.43 µM
- TGI (SR leukemia): 6.93 µM
- TGI (U251 CNS): 12.3 µM

Compound: COC(=O)C1=C(C)N(NC(=O)c2ccccc2)C2(O)CCCC(=O)C12C (stereo not drawn)
- TGI (A498 renal): > 100 µM
- TGI (OVCAR-4 ovarian): > 100 µM
- TGI (OVCAR-8 ovarian): > 100 µM
- TGI (SK-OV-3 ovarian): > 100 µM
- TGI (SNB-75 CNS): > 100 µM
- TGI (U251 CNS): > 100 µM

Compound: Cc1ccc(S(=O)(=O)c2ccc([N+](=O)[O-])o2)cc1
- TGI (A498 renal): 33.9 µM
- TGI (CCRF-CEM leukemia): 1.21 µM
- TGI (OVCAR-4 ovarian): > 22 µM
- TGI (OVCAR-8 ovarian): 1.82 µM
- TGI (PC-3 prostate): 3.28 µM
- TGI (SF-268 CNS): 46.6 µM
- TGI (SK-OV-3 ovarian): 35.2 µM
- TGI (SNB-75 CNS): 11.8 µM
- TGI (U251 CNS): 17.7 µM

Compound: CSCCCNC(=O)c1csc(-c2csc(CCNC(=O)CNC(=O)CNC(=O)CNC(=O)OC(C)(C)C)n2)n1
- TGI (A498 renal): > 100 µM
- TGI (CCRF-CEM leukemia): > 100 µM
- TGI (OVCAR-4 ovarian): > 100 µM
- TGI (OVCAR-8 ovarian): > 100 µM
- TGI (PC-3 prostate): > 100 µM
- TGI (SF-268 CNS): > 100 µM
- TGI (SK-OV-3 ovarian): > 100 µM
- TGI (SNB-75 CNS): > 100 µM
- TGI (U251 CNS): > 100 µM

Compound: CCn1c2ccc(O)c(C(=O)OC)c2c2cc3ccccc3c(O)c21
- TGI (A498 renal): 39.5 µM
- TGI (CCRF-CEM leukemia): 70 µM
- TGI (OVCAR-4 ovarian): 75.1 µM
- TGI (OVCAR-8 ovarian): 56.9 µM
- TGI (PC-3 prostate): 78.8 µM
- TGI (SF-268 CNS): 63.6 µM
- TGI (SK-OV-3 ovarian): 43.8 µM
- TGI (SR leukemia): 57.6 µM
- TGI (U251 CNS): 69.2 µM

Compound: O=c1[nH]c2cc3cccnc3c(Cl)c2nc1CBr
- TGI (CCRF-CEM leukemia): 31.1 µM
- TGI (OVCAR-4 ovarian): 34.2 µM
- TGI (OVCAR-8 ovarian): 44.4 µM
- TGI (PC-3 prostate): 37.4 µM
- TGI (SF-268 CNS): 64.7 µM
- TGI (SK-OV-3 ovarian): 65.5 µM
- TGI (SR leukemia): 73.3 µM
- TGI (U251 CNS): 32.4 µM

Compound: CC1=C[C@@H](C)C[C@]2(C)CC[C@H](O2)[C@]23CC[C@](C)(C[C@H](O2)[C@@H]2O[C@@](C)(CC2=O)[C@@H](O)[C@H]2CC[C@@]4(CCC[C@@H](O4)[C@H](C)C(=O)O[C@H]4C[C@H]([C@]5(O)OCC[C@H](C)[C@@H]5O)O[C@H]4C=C1)O2)O3
- TGI (A498 renal): 0.005 µM
- TGI (OVCAR-8 ovarian): > 10 µM
- TGI (SF-268 CNS): 0.0219 µM
- TGI (SR leukemia): > 10 µM
- TGI (U251 CNS): > 10 µM

Compound: COc1ccc2c(c1OC)C(=O)O[C@@H]2[C@H]1c2cc3c(cc2CCN1C)OCO3
- TGI (A498 renal): > 100 µM
- TGI (OVCAR-4 ovarian): > 100 µM
- TGI (OVCAR-8 ovarian): > 100 µM
- TGI (PC-3 prostate): > 100 µM
- TGI (SF-268 CNS): > 100 µM
- TGI (SK-OV-3 ovarian): > 100 µM
- TGI (SNB-75 CNS): > 100 µM
- TGI (SR leukemia): > 100 µM
- TGI (U251 CNS): > 100 µM

Compound: Nc1ccc(-c2nc3ccc(F)cc3s2)cc1
- TGI (A498 renal): 80.3 µM
- TGI (CCRF-CEM leukemia): > 100 µM
- GI50 (OVCAR-4 ovarian): 23.1 µM
- TGI (OVCAR-4 ovarian): > 100 µM
- TGI (OVCAR-8 ovarian): > 100 µM
- TGI (PC-3 prostate): 92.6 µM
- TGI (SF-268 CNS): > 100 µM
- TGI (SNB-75 CNS): 95 µM
- TGI (SR leukemia): > 100 µM
- TGI (U251 CNS): > 100 µM

Compound: Oc1nc(N/N=C/c2ccccc2)[nH]c1/C=C1\C=Nc2ccccc21
- TGI (A498 renal): > 100 µM
- TGI (CCRF-CEM leukemia): 74.3 µM
- TGI (OVCAR-4 ovarian): > 100 µM
- TGI (OVCAR-8 ovarian): > 100 µM
- TGI (PC-3 prostate): > 100 µM
- TGI (SF-268 CNS): > 100 µM
- TGI (SK-OV-3 ovarian): > 100 µM
- TGI (SNB-75 CNS): > 100 µM
- TGI (U251 CNS): 51.3 µM
